Assay results published in the NIST ThermoML archive (doi:10.1021/acs.jced.9b00507).

Test: xn = mol fraction of the nth substance listed
Details: 100 kPa, Liquid; for viscosity: Concentric cylinders viscometry; for mass density: Vibrating tube method

CCCCCCn1cc[n+](C)c1.O=[N+]([O-])[O-] [1-hexyl-3-methylimidazolium nitrate] + CCCCCCCO
Details | mass density [kg/m3] | viscosity [mPa·s]
293.15 K, x1 = 0.0812 | 857.5 | 12.74
293.15 K, x1 = 0.1608 | 889.6 | 22.91
293.15 K, x1 = 0.2395 | 919 | 36.98
293.15 K, x1 = 0.3493 | 956.7 | 67.76
293.15 K, x1 = 0.4392 | 985 | 100.46
293.15 K, x1 = 0.5749 | 1023.9 | 177.42
293.15 K, x1 = 0.6491 | 1043.4 | 234.42
293.15 K, x1 = 0.7398 | 1065.6 | 338.84
293.15 K, x1 = 0.8496 | 1090.2 | 508.16
293.15 K, x1 = 0.9381 | 1108.4 | 677.64
293.15 K, x1 = 1 | 1120.3 | 804.17
298.15 K, x1 = 0.0812 | 853.9 | 10.09
298.15 K, x1 = 0.1608 | 885.9 | 16.67
298.15 K, x1 = 0.2395 | 915.3 | 25.12
298.15 K, x1 = 0.3493 | 953.1 | 41.88
298.15 K, x1 = 0.4392 | 981.5 | 61.38
298.15 K, x1 = 0.5749 | 1020.5 | 109.9
298.15 K, x1 = 0.6491 | 1040 | 150.66
298.15 K, x1 = 0.7398 | 1062.2 | 219.28
298.15 K, x1 = 0.8496 | 1087.1 | 334.2
298.15 K, x1 = 0.9381 | 1105.4 | 460.97
298.15 K, x1 = 1 | 1117.5 | 545.25
303.15 K, x1 = 0.0812 | 850.3 | 7.94
303.15 K, x1 = 0.1608 | 882.2 | 12.19
303.15 K, x1 = 0.2395 | 911.5 | 17.82
303.15 K, x1 = 0.3493 | 949.3 | 28.31
303.15 K, x1 = 0.4392 | 977.7 | 40.09
303.15 K, x1 = 0.5749 | 1016.8 | 69.18
303.15 K, x1 = 0.6491 | 1036.3 | 94.19
303.15 K, x1 = 0.7398 | 1058.6 | 136.14
303.15 K, x1 = 0.8496 | 1083.5 | 213.3
303.15 K, x1 = 0.9381 | 1102.1 | 303.7
303.15 K, x1 = 1 | 1114.3 | 369.14
308.15 K, x1 = 0.0812 | 846.5 | 6.64
308.15 K, x1 = 0.1608 | 878.3 | 9.57
308.15 K, x1 = 0.2395 | 907.7 | 13.27
308.15 K, x1 = 0.3493 | 945.5 | 19.95
308.15 K, x1 = 0.4392 | 973.9 | 27.99
308.15 K, x1 = 0.5749 | 1013 | 46.34
308.15 K, x1 = 0.6491 | 1032.6 | 61.8
308.15 K, x1 = 0.7398 | 1054.9 | 91.83
308.15 K, x1 = 0.8496 | 1080 | 147.57
308.15 K, x1 = 0.9381 | 1098.7 | 206.54
308.15 K, x1 = 1 | 1111.1 | 257.59
313.15 K, x1 = 0.0812 | 842.8 | 5.43
313.15 K, x1 = 0.1608 | 874.6 | 7.36
313.15 K, x1 = 0.2395 | 903.9 | 9.99
313.15 K, x1 = 0.3493 | 941.7 | 14.27
313.15 K, x1 = 0.4392 | 970.1 | 19.02
313.15 K, x1 = 0.5749 | 1009.3 | 31.62
313.15 K, x1 = 0.6491 | 1028.9 | 42.17
313.15 K, x1 = 0.7398 | 1051.3 | 62.32
313.15 K, x1 = 0.8496 | 1076.5 | 101.4
313.15 K, x1 = 0.9381 | 1095.3 | 142.89
313.15 K, x1 = 1 | 1107.8 | 185.67
318.15 K, x1 = 0.0812 | 839.1 | 4.59
318.15 K, x1 = 0.1608 | 870.8 | 6.17
318.15 K, x1 = 0.2395 | 900.2 | 7.85
318.15 K, x1 = 0.3493 | 937.9 | 10.99
318.15 K, x1 = 0.4392 | 966.4 | 14.45
318.15 K, x1 = 0.5749 | 1005.6 | 22.7
318.15 K, x1 = 0.6491 | 1025.4 | 30.06
318.15 K, x1 = 0.7398 | 1047.9 | 43.55
318.15 K, x1 = 0.8496 | 1073.1 | 71.58
318.15 K, x1 = 0.9381 | 1092.1 | 106.41
318.15 K, x1 = 1 | 1104.7 | 140.18
323.15 K, x1 = 0.0812 | 835.3 | 3.84
323.15 K, x1 = 0.1608 | 867 | 5.01
323.15 K, x1 = 0.2395 | 896.4 | 6.43
323.15 K, x1 = 0.3493 | 934.2 | 8.89
323.15 K, x1 = 0.4392 | 962.6 | 11.59
323.15 K, x1 = 0.5749 | 1001.9 | 17.99
323.15 K, x1 = 0.6491 | 1021.8 | 23.44
323.15 K, x1 = 0.7398 | 1044.4 | 34.2
323.15 K, x1 = 0.8496 | 1069.8 | 54.87
323.15 K, x1 = 0.9381 | 1088.9 | 82.79
323.15 K, x1 = 1 | 1101.6 | 110.94

CCCCCCn1cc[n+](C)c1.O=[N+]([O-])[O-] [1-hexyl-3-methylimidazolium nitrate] + CCCCCCCCCO
Details | mass density [kg/m3] | viscosity [mPa·s]
293.15 K, x1 = 0.0819 | 856.1 | 15.74
293.15 K, x1 = 0.1609 | 882.8 | 22.23
293.15 K, x1 = 0.2386 | 908.3 | 30.27
293.15 K, x1 = 0.3483 | 942.9 | 48.53
293.15 K, x1 = 0.4392 | 970.5 | 71.12
293.15 K, x1 = 0.5588 | 1005.4 | 117.49
293.15 K, x1 = 0.6508 | 1031.3 | 177.42
293.15 K, x1 = 0.7394 | 1055.3 | 263.63
293.15 K, x1 = 0.8497 | 1083.9 | 413.05
293.15 K, x1 = 0.9456 | 1107.6 | 630.96
293.15 K, x1 = 1 | 1120.3 | 804.17
298.15 K, x1 = 0.0819 | 852.5 | 12.59
298.15 K, x1 = 0.1609 | 879.2 | 16.67
298.15 K, x1 = 0.2386 | 904.7 | 21.93
298.15 K, x1 = 0.3483 | 939.3 | 33.81
298.15 K, x1 = 0.4392 | 967 | 48.19
298.15 K, x1 = 0.5588 | 1001.9 | 79.43
298.15 K, x1 = 0.6508 | 1027.9 | 118.3
298.15 K, x1 = 0.7394 | 1052 | 175.79
298.15 K, x1 = 0.8497 | 1080.7 | 288.4
298.15 K, x1 = 0.9456 | 1104.5 | 439.6
298.15 K, x1 = 1 | 1117.5 | 545.25
303.15 K, x1 = 0.0819 | 849 | 10.19
303.15 K, x1 = 0.1609 | 875.5 | 13.18
303.15 K, x1 = 0.2386 | 901 | 16.79
303.15 K, x1 = 0.3483 | 935.6 | 24.27
303.15 K, x1 = 0.4392 | 963.3 | 33.11
303.15 K, x1 = 0.5588 | 998.3 | 51.88
303.15 K, x1 = 0.6508 | 1024.3 | 76.03
303.15 K, x1 = 0.7394 | 1048.4 | 113.24
303.15 K, x1 = 0.8497 | 1077.3 | 188.34
303.15 K, x1 = 0.9456 | 1101.2 | 294.59
303.15 K, x1 = 1 | 1114.3 | 369.14
308.15 K, x1 = 0.0819 | 845.5 | 8.41
308.15 K, x1 = 0.1609 | 872 | 10.05
308.15 K, x1 = 0.2386 | 897.4 | 12.25
308.15 K, x1 = 0.3483 | 932 | 16.94
308.15 K, x1 = 0.4392 | 959.7 | 22.08
308.15 K, x1 = 0.5588 | 994.7 | 32.81
308.15 K, x1 = 0.6508 | 1020.6 | 45.71
308.15 K, x1 = 0.7394 | 1044.8 | 68.08
308.15 K, x1 = 0.8497 | 1073.7 | 116.37
308.15 K, x1 = 0.9456 | 1097.8 | 192.31
308.15 K, x1 = 1 | 1111.1 | 257.59
313.15 K, x1 = 0.0819 | 841.9 | 6.7
313.15 K, x1 = 0.1609 | 868.3 | 7.87
313.15 K, x1 = 0.2386 | 893.7 | 9.06
313.15 K, x1 = 0.3483 | 928.3 | 11.04
313.15 K, x1 = 0.4392 | 956 | 13.27
313.15 K, x1 = 0.5588 | 991 | 18.92
313.15 K, x1 = 0.6508 | 1017 | 26.73
313.15 K, x1 = 0.7394 | 1041.2 | 41.3
313.15 K, x1 = 0.8497 | 1070.2 | 73.71
313.15 K, x1 = 0.9456 | 1094.4 | 136.37
313.15 K, x1 = 1 | 1107.8 | 185.67
318.15 K, x1 = 0.0819 | 838.3 | 5.28
318.15 K, x1 = 0.1609 | 864.7 | 5.78
318.15 K, x1 = 0.2386 | 890 | 6.35
318.15 K, x1 = 0.3483 | 924.6 | 7.36
318.15 K, x1 = 0.4392 | 952.3 | 8.61
318.15 K, x1 = 0.5588 | 987.4 | 11.46
318.15 K, x1 = 0.6508 | 1013.5 | 15.85
318.15 K, x1 = 0.7394 | 1037.8 | 25.39
318.15 K, x1 = 0.8497 | 1066.9 | 53.43
318.15 K, x1 = 0.9456 | 1091.2 | 101.71
318.15 K, x1 = 1 | 1104.7 | 140.18
323.15 K, x1 = 0.0819 | 834.7 | 4.15
323.15 K, x1 = 0.1609 | 861.1 | 4.25
323.15 K, x1 = 0.2386 | 886.4 | 4.41
323.15 K, x1 = 0.3483 | 921 | 4.84
323.15 K, x1 = 0.4392 | 948.6 | 5.33
323.15 K, x1 = 0.5588 | 983.8 | 6.84
323.15 K, x1 = 0.6508 | 1009.9 | 9.63
323.15 K, x1 = 0.7394 | 1034.3 | 16.2
323.15 K, x1 = 0.8497 | 1063.5 | 37.68
323.15 K, x1 = 0.9456 | 1088 | 78.73
323.15 K, x1 = 1 | 1101.6 | 110.94
